In brackets after ≈: the same amount, converted by molar mass. Read-outs that look alike come from different tables or passages of the source.
Experiments:
Assay type in all cases: cell-based
E. coli BW25113 = test: MIC, microdilution in 96-well plates; settings: Escherichia coli, read-out: MIC
Outline: (§1)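 Broth microdilution per CLSI guidance: each strain was diluted 1:10000 from a growing subculture into Luria-Bertani medium, and compound was serially diluted 2-fold in triplicate alongside a DMSO column. Plates were shaken at 37° C. for 16-18 hours; MIC is the lowest concentration showing no visible turbidity.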

Edwardsiella tarda = test: MIC, microdilution in 96-well plates
Outline: as §1

E. coli JW5503 (deltolC) = test: MIC, 20-strain panel; settings: Escherichia coli
Outline: as §1

E. coli MG1655 = test: MIC, 20-strain panel; settings: Escherichia coli, read-out: MIC
Outline: as §1

[1] = tested on: Klebsiella pneumoniae subsp. pneumoniae; test: MIC, 20-strain panel
Outline: as §1

[2] = tested on: Salmonella enterica subsp. enterica typhimurium; test: MIC, 20-strain panel
Outline: as §1

Shigella flexneri = test: MIC, 20-strain panel
Outline: as §1

[3] = tested on: Staphylococcus aureus subsp. aureus; test: MIC, 20-strain panel; settings: read-out: MIC
Outline: as §1

[4] = tested on: Staphylococcus epidermidis; test: MIC, 20-strain panel
Outline: as §1

[5] = tested on: Staphylococcus saprophyticus subsp. saprophyticus; test: MIC, 20-strain panel
Outline: as §1

Streptococcus agalactiae = test: MIC, 20-strain panel
Outline: as §1

Streptococcus pyogenes = test: MIC, 20-strain panel
Outline: as §1

[6] = Klebsiella pneumoniae subsp. pneumoniae
[7] = Salmonella enterica subsp. enterica Typhimurium
[8] = Staphylococcus aureus subsp. aureus
[9] = E: Klebsiella pneumoniae subsp. pneumoniae
[10] = F: Salmonella enterica subsp. enterica Typhimurium
[11] = H: Staphylococcus aureus subsp. aureus

Row | SMILES | MIC (E. coli BW25113; BW25113, E. coli BW25113) [µg/mL] | MIC (Edwardsiella tarda) [µg/mL] | MIC (E. coli JW5503 (deltolC); E. coli JW5503 (deltolC)) [µg/mL] | MIC (E. coli MG1655; MG1655, E. coli MG1655) [µg/mL] | MIC [1, 6] [µg/mL] | MIC [2, 7] [µg/mL] | MIC (Shigella flexneri) [µg/mL] | MIC [3, 8] [µg/mL] | MIC [4] [µg/mL] | MIC [5] [µg/mL] | MIC (Streptococcus agalactiae) [µg/mL] | MIC (Streptococcus pyogenes) [µg/mL] | MIC (E. coli BW25113; BW25113, B: E. coli BW25113) [µg/mL] | MIC (Edwardsiella tarda; D: Edwardsiella tarda) [µg/mL] | MIC (E. coli JW5503 (deltolC); C: E. coli JW5503 (deltolC)) [µg/mL] | MIC (E. coli MG1655; MG1655, A: E. coli MG1655) [µg/mL] | MIC [1, 9] [µg/mL] | MIC [2, 10] [µg/mL] | MIC (Shigella flexneri; G: Shigella flexneri) [µg/mL] | MIC [3, 11] [µg/mL]
1 | O=S(=O)(N[C@@H]1CCN(Cc2ccc(-c3ccccc3)cc2)C1)c1cncc(F)c1 [Compound 147] | > 8 | > 8 | 8 (≈ 19.4 µM) | > 8 | > 8 | > 8 | > 8 | > 8 | > 8 | > 8 | > 8 | > 8 | – | – | – | – | – | – | – | –
2 | N#Cc1cccc(S(=O)(=O)N[C@@H]2CCN(Cc3ccc4c(c3)OCCO4)C2)c1 [Compound 9] | – | – | – | – | – | – | – | – | > 8 | > 8 | > 8 | > 8 | > 8 | > 8 | > 8 | > 8 | > 8 | > 8 | > 8 | > 8
3 | N#Cc1cc(S(=O)(=O)N[C@@H]2CCN(Cc3ccc(-c4ccccc4)cc3)C2)ccc1F [Compound 19] | – | – | – | – | – | – | – | – | > 8 | > 8 | > 8 | > 8 | > 8 | > 8 | 0.25 (≈ 0.574 µM) | > 8 | > 8 | 4 (≈ 9.18 µM) | > 8 | > 8
4 | O=S(=O)(N[C@@H]1CCN(Cc2ccc(OC3CC3)cc2)C1)c1cc(Cl)cc(C(F)(F)F)c1 [Compound 94] | – | – | – | – | – | – | – | – | > 8 | > 8 | > 8 | > 8 | > 8 | > 8 | 8 (≈ 16.8 µM) | > 8 | > 8 | > 8 | > 8 | > 8
5 | N#Cc1cccc(S(=O)(=O)N[C@@H]2CCN(Cc3ccn(-c4ccccc4)n3)C2)c1 [Compound 126] | – | – | – | – | – | – | – | – | > 8 | > 8 | > 8 | > 8 | > 8 | > 8 | > 8 | > 8 | > 8 | > 8 | > 8 | > 8
6 | Cc1ccncc1S(=O)(=O)N[C@@H]1CCN(Cc2ccc(-c3ccccc3)cc2)C1 [Compound 137] | > 8 | > 8 | 2 (≈ 4.91 µM) | > 8 | > 8 | > 8 | > 8 | > 8 | > 8 | > 8 | > 8 | > 8 | – | – | – | – | – | – | – | –
7 | Cc1ccc(S(=O)(=O)N[C@@H]2CCN(Cc3ccc(OC(C)C)cc3)C2)cn1 [Compound 139] | > 8 | > 8 | > 8 | > 8 | > 8 | > 8 | > 8 | > 8 | > 8 | > 8 | > 8 | > 8 | – | – | – | – | – | – | – | –
8 | CC(C)Oc1c(Cl)cc(CN2CC[C@@H](NS(=O)(=O)c3cccc(C#N)c3)C2)cc1Cl [Compound 116] | – | – | – | – | – | – | – | – | > 8 | > 8 | > 8 | > 8 | > 8 | > 8 | > 8 | > 8 | > 8 | > 8 | > 8 | > 8
9 | O=S(=O)(N[C@@H]1CCN(Cc2ccc(-c3ccccc3)cc2)C1)c1cc(C(F)(F)F)ccc1Cl [Compound 47] | – | – | – | – | – | – | – | – | ~8 (≈ 16.2 µM) | > 8 | > 8 | ~8 (≈ 16.2 µM) | > 8 | > 8 | 1 (≈ 2.02 µM) | > 8 | > 8 | ~8 (≈ 16.2 µM) | > 8 | > 8

Source: patent US10253039B2, “Inhibitors of bacterial DNA gyrase with efficacy against gram-negative bacteria” (priority 2014, dated 2019)
